In patent publication US9993494B2, “Compositions and methods for treating fibrotic disease” (eFFECTOR Therapeutics, Inc., priority 2014, dated 2018):

System: normal human lung fibroblasts
Experiment: Ribosomal profiling: translational efficiency in TGFβ-treated fibroblasts
Type: cell-based
Outline: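 Cells lysed on ice after a cold PBS wash containing cycloheximide. Ribosome-protected fragments and total mRNA were prepared with the ARTseq kit and sequenced by RNA-Seq. Reads were trimmed, mapped to the human genome and counted uniquely over coding regions per gene, with low-count genes excluded before differential translational-efficiency analysis.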

TGFβ
change in translational profile of PPARG caused by TGFβ (ENSG00000132170, Control vs. TGFβ): A (A = <−2.5) | Log2 TE KDM6B (ENSG00000132510, 5 replicates): 1.603 | change in translational profile of KDM6B caused by TGFβ (ENSG00000132510, Control vs. TGFβ): E (E = <1.5 to 2.5) | Log2 TE RARRES3 (ENSG00000133321, 5 replicates): −1.995 | change in translational profile of RARRES3 caused by TGFβ (ENSG00000133321, Control vs. TGFβ): B (B = <−1.5 to −2.5) | Log2 TE TMTC1 (ENSG00000133687, 5 replicates): −1.907 | Log2 TE RPS15A (ENSG00000134419, 5 replicates): 2.195 | Log2 TE SOX5 (ENSG00000134532, 5 replicates): −1.667 | change in translational profile of BIVM caused by TGFβ (ENSG00000134897, Control vs. TGFβ): B (B = <−1.5 to −2.5) | Log2 TE ATP5G2 (ENSG00000135390, 5 replicates): 1.381 | change in translational profile of ATP5G2 caused by TGFβ (ENSG00000135390, Control vs. TGFβ): E (E = <1.5 to 2.5) | Log2 TE KRT7 (ENSG00000135480, 5 replicates): 2 | change in translational profile of KRT7 caused by TGFβ (ENSG00000135480, Control vs. TGFβ): E (E = <1.5 to 2.5) | Log2 TE HNRNPA1 (ENSG00000135486, 5 replicates): 1.086 | change in translational profile of HNRNPA1 caused by TGFβ (ENSG00000135486, Control vs. TGFβ): D (D = <1.0 to 1.5) | Log2 TE PCNXL2 (ENSG00000135749, 5 replicates): −1.261 | Log2 TE PLXNC1 (ENSG00000136040, 5 replicates): −1.0996 | Log2 TE IL6 (ENSG00000136244, 5 replicates): 1.369 | change in translational profile of IL6 caused by TGFβ (ENSG00000136244, Control vs. TGFβ): E (E = <1.5 to 2.5) | Log2 TE RPL35 (ENSG00000136942, 5 replicates): 1.28 | change in translational profile of RPL35 caused by TGFβ (ENSG00000136942, Control vs. TGFβ): E (E = <1.5 to 2.5) | change in translational profile of NOV caused by TGFβ (ENSG00000136999, Control vs. TGFβ): C (C = <−1.0 to −1.5) | Log2 TE IL33 (ENSG00000137033, 5 replicates): −2.488 | Log2 TE RPS6 (ENSG00000137154, 5 replicates): 1.598 | Log2 TE IER3 (ENSG00000137331, 5 replicates): 1.702 | change in translational profile of IER3 caused by TGFβ (ENSG00000137331, Control vs. TGFβ): E (E = <1.5 to 2.5) | Log2 TE DDX60 (ENSG00000137628, 5 replicates): −1.211 | change in translational profile of DDX60 caused by TGFβ (ENSG00000137628, Control vs. TGFβ): C (C = <−1.0 to −1.5) | Log2 TE RPLP1 (ENSG00000137818, 5 replicates): 1.461 | change in translational profile of RPLP1 caused by TGFβ (ENSG00000137818, Control vs. TGFβ): E (E = <1.5 to 2.5) | Log2 TE PAQR5 (ENSG00000137819, 5 replicates): −1.445 | change in translational profile of PAQR5 caused by TGFβ (ENSG00000137819, Control vs. TGFβ): B (B = <−1.5 to −2.5) | Log2 TE STAMBPL1 (ENSG00000138134, 5 replicates): −1.139 | Log2 TE KIF20B (ENSG00000138182, 5 replicates): −1.281 | Log2 TE RPS24 (ENSG00000138326, 5 replicates): 1.444 | Log2 TE TET1 (ENSG00000138336, 5 replicates): 1.853 | Log2 TE AOX1 (ENSG00000138356, 5 replicates): −1.143 | change in translational profile of AOX1 caused by TGFβ (ENSG00000138356, Control vs. TGFβ): B (B = <−1.5 to −2.5) | Log2 TE NAB1 (ENSG00000138386, 5 replicates): −1.01 | Log2 TE SLC40A1 (ENSG00000138449, 5 replicates): 1.114 | Log2 TE FGF5 (ENSG00000138675, 5 replicates): −1.163 | change in translational profile of FGF5 caused by TGFβ (ENSG00000138675, Control vs. TGFβ): B (B = <−1.5 to −2.5) | Log2 TE PDE5A (ENSG00000138735, 5 replicates): −1.594 | change in translational profile of PDE5A caused by TGFβ (ENSG00000138735, Control vs. TGFβ): B (B = <−1.5 to −2.5) | Log2 TE FGD4 (ENSG00000139132, 5 replicates): −1.142 | Log2 TE SLC38A4 (ENSG00000139209, 5 replicates): −1.142 | Log2 TE GAS2L3 (ENSG00000139354, 5 replicates): −2.342 | change in translational profile of GAS2L3 caused by TGFβ (ENSG00000139354, Control vs. TGFβ): A (A = <−2.5) | Log2 TE TDG (ENSG00000139372, 5 replicates): 1.025 | Log2 TE DIAPH3 (ENSG00000139734, 5 replicates): 1.659 | change in translational profile of DIAPH3 caused by TGFβ (ENSG00000139734, Control vs. TGFβ): E (E = <1.5 to 2.5) | Log2 TE RPS2 (ENSG00000140988, 5 replicates): 1.607 | change in translational profile of MYO19 caused by TGFβ (ENSG00000141140, Control vs. TGFβ): D (D = <1.0 to 1.5) | Log2 TE CACNA1A (ENSG00000141837, 5 replicates): −1.055 | Log2 TE RPS11 (ENSG00000142534, 5 replicates): 1.314 | Log2 TE RPL13A (ENSG00000142541, 5 replicates): 1.797 | change in translational profile of RPL13A caused by TGFβ (ENSG00000142541, Control vs. TGFβ): E (E = <1.5 to 2.5) | Log2 TE RPL11 (ENSG00000142676, 5 replicates): 1.396 | change in translational profile of RPL11 caused by TGFβ (ENSG00000142676, Control vs. TGFβ): E (E = <1.5 to 2.5)
